Measurements as given in US7767240B2, “Microbiological control in poultry processing” (priority 2001, dated 2010).

Tests used:
Assay in all cases: Bacteria count per bird over 20-day storage (Example 4)
Format in all cases: cell-based
Conditions in all cases: pH 8
[1] = tested on: Listeria monocytogenes ATCC 7644
Protocol: (§1) A study was conducted to determine the effect of Clorox® bleach, and 1,3-dibromo-5,5-dimethylhydantoin (DBDMH) on carcass bacteria residual after 1.5 hour in a chill tank solution and spoilage 20-day shelf life longevity (caused by bacteria contamination). Tests were conducted at pH 8 (adjusted by trisodium phosphate). Skin pigmentation (Minolta Color Meter L value or Lightness, a value or redness and b value or yellowness) were determined before and post-processing.
(§2) In general the study involved normal processing of 56-day-old birds, immersing carcasses first in a warm bath containing 10^4 per mL Escherichia coli, 10^4 per mL Salmonella enteritidis, 10^4 per mL Pseudomonas aeruginosa, 10^4 per mL Campylobacter jejuni, and 10^4 per mL spoilage bacteria each from […] strains (Listeria monocytogenes and Shigella sonnei). Carcass were then immersed in a chill tank “soup”, containing normal organic fluids (blood, fat, skin, and meat particles) and containing various disinfectants (termed test materials).
(§3) A DBDMH stock solution and test solutions, a bacteria stock solution, and a “chicken soup” were prepared as in Example 3. In addition, the bacterial broth treatments, the whole bird wash sampling procedure, and the methodologies used for quantitative or qualitative determinations for bacterial organisms were conducted as in Example 3.
(§4) In greater detail the trial events and experimental design used in this group of tests were as follows: • a) Test microorganisms used were: • Escherichia coli ATCC 11229 • Pseudomonas aeruginosa ATCC 15442 • Salmonella enteritidis ATCC 13076 • Shigella sonnei ATCC 9290 • Listeria monocytogenes ATCC 7644 • Campylobacter jejuni ATCC 29428 • b) Test Procedure: All test strains were grown individually at 35° C. for 24 hours in the media specified in Table 12. Cells were harvested by centrifugation at 10,000×g for 10 minutes and washed twice with Butterfield's Phosphate Buffer (BPB of pH 7.2). Cells were resuspended in BPB to obtain a cell suspension of approximately 1.0×10^8 CFU/mL for each microorganism. The target inoculum levels were approximately 10^6 CFU/mL in the final test solutions. In the cases of S. enteritidis and P. aeruginosa the species were washed by pouring into prepared sterile centrifuge tubes with cheesecloth filters. The culture was then pelleted and washed using above techniques and repeated 3 times. • c) The birds (56 days old) were processed under normal commercial conditions. • d) The bacteria were added to a large batch of the “chicken soup”, and then aliquots of the resultant mixture were distributed equally among the chill waters used for each test. Then the particular disinfectant composition under test was added to one of the chill waters. […]

[2] = tested on: Pseudomonas aeruginosa ATCC 15442
Protocol: as §1, §2, §3, §4

[3] = tested on: Escherichia coli ATCC 11229
Protocol: as §1, §2, §3, §4

[4] = tested on: Salmonella enteritidis ATCC 13076
Protocol: as §1, §2, §3, §4

[5] = tested on: Campylobacter jejuni ATCC 29428
Protocol: as §1, §2, §3, §4

## CC1(C)C(=O)N(Br)C(=O)N1Br [DBDMH, 1,3-dibromo-5,5-dimethylhydantoin]
[1]; Day 0, 10 ppm
  average bacteria count per bird, L. monocytogenes: 528 per bird
[1]; Day 0, 20 ppm
  average bacteria count per bird, L. monocytogenes: 13 per bird
[1]; Day 2, 10 ppm
  average bacteria count per bird, L. monocytogenes: 601 per bird
[1]; Day 2, 20 ppm
  average bacteria count per bird, L. monocytogenes: 19 per bird
[1]; Day 4, 10 ppm
  average bacteria count per bird, L. monocytogenes: 670 per bird
[1]; Day 4, 20 ppm
  average bacteria count per bird, L. monocytogenes: 28 per bird
[1]; Day 6, 10 ppm
  average bacteria count per bird, L. monocytogenes: 741 per bird
[1]; Day 6, 20 ppm
  average bacteria count per bird, L. monocytogenes: 55 per bird
[1]; Day 8, 10 ppm
  average bacteria count per bird, L. monocytogenes: 880 per bird
[1]; Day 8, 20 ppm
  average bacteria count per bird, L. monocytogenes: 107 per bird
[1]; Day 10, 10 ppm
  average bacteria count per bird, L. monocytogenes: 1096 per bird
[1]; Day 10, 20 ppm
  average bacteria count per bird, L. monocytogenes: 218 per bird
[1]; Day 12, 10 ppm
  average bacteria count per bird, L. monocytogenes: 1335 per bird
[1]; Day 12, 20 ppm
  average bacteria count per bird, L. monocytogenes: 442 per bird
[1]; Day 14, 10 ppm
  average bacteria count per bird, L. monocytogenes: 1564 per bird
[1]; Day 14, 20 ppm
  average bacteria count per bird, L. monocytogenes: 843 per bird
[1]; Day 16, 10 ppm
  average bacteria count per bird, L. monocytogenes: 1901 per bird
[1]; Day 16, 20 ppm
  average bacteria count per bird, L. monocytogenes: 1646 per bird
[1]; Day 18, 10 ppm
  average bacteria count per bird, L. monocytogenes: 2221 per bird
[1]; Day 18, 20 ppm
  average bacteria count per bird, L. monocytogenes: 1985 per bird
[1]; Day 20, 10 ppm
  average bacteria count per bird, L. monocytogenes: 2678 per bird
[1]; Day 20, 20 ppm
  average bacteria count per bird, L. monocytogenes: 2238 per bird
[2]; Day 0, 10 ppm
  average bacteria count per bird, P. aeruginosa: 743 per bird
[2]; Day 0, 20 ppm
  average bacteria count per bird, P. aeruginosa: 6 per bird
[2]; Day 2, 10 ppm
  average bacteria count per bird, P. aeruginosa: 820 per bird
[2]; Day 2, 20 ppm
  average bacteria count per bird, P. aeruginosa: 9 per bird
[2]; Day 4, 10 ppm
  average bacteria count per bird, P. aeruginosa: 931 per bird
[2]; Day 4, 20 ppm
  average bacteria count per bird, P. aeruginosa: 13 per bird
[2]; Day 6, 10 ppm
  average bacteria count per bird, P. aeruginosa: 1013 per bird
[2]; Day 6, 20 ppm
  average bacteria count per bird, P. aeruginosa: 25 per bird
[2]; Day 8, 10 ppm
  average bacteria count per bird, P. aeruginosa: 1268 per bird
[2]; Day 8, 20 ppm
  average bacteria count per bird, P. aeruginosa: 48 per bird
[2]; Day 10, 10 ppm
  average bacteria count per bird, P. aeruginosa: 1485 per bird
[2]; Day 10, 20 ppm
  average bacteria count per bird, P. aeruginosa: 91 per bird
[2]; Day 12, 10 ppm
  average bacteria count per bird, P. aeruginosa: 1730 per bird
[2]; Day 12, 20 ppm
  average bacteria count per bird, P. aeruginosa: 186 per bird
[2]; Day 14, 10 ppm
  average bacteria count per bird, P. aeruginosa: 2055 per bird
[2]; Day 14, 20 ppm
  average bacteria count per bird, P. aeruginosa: 363 per bird
[2]; Day 16, 10 ppm
  average bacteria count per bird, P. aeruginosa: 2560 per bird
[2]; Day 16, 20 ppm
  average bacteria count per bird, P. aeruginosa: 700 per bird
[2]; Day 18, 10 ppm
  average bacteria count per bird, P. aeruginosa: 3087 per bird
[2]; Day 18, 20 ppm
  average bacteria count per bird, P. aeruginosa: 826 per bird
[2]; Day 20, 10 ppm
  average bacteria count per bird, P. aeruginosa: 3853 per bird
[2]; Day 20, 20 ppm
  average bacteria count per bird, P. aeruginosa: 908 per bird
[3]; Day 0, 10 ppm
  average bacteria count per bird, E. coli: 861 per bird
[3]; Day 0, 20 ppm
  average bacteria count per bird, E. coli: 22 per bird
[3]; Day 2, 10 ppm
  average bacteria count per bird, E. coli: 966 per bird
[3]; Day 2, 20 ppm
  average bacteria count per bird, E. coli: 31 per bird
[3]; Day 4, 10 ppm
  average bacteria count per bird, E. coli: 1050 per bird
[3]; Day 4, 20 ppm
  average bacteria count per bird, E. coli: 49 per bird
[3]; Day 6, 10 ppm
  average bacteria count per bird, E. coli: 1124 per bird
[3]; Day 6, 20 ppm
  average bacteria count per bird, E. coli: 100 per bird
[3]; Day 8, 10 ppm
  average bacteria count per bird, E. coli: 1364 per bird
[3]; Day 8, 20 ppm
  average bacteria count per bird, E. coli: 204 per bird
[3]; Day 10, 10 ppm
  average bacteria count per bird, E. coli: 1621 per bird
[3]; Day 10, 20 ppm
  average bacteria count per bird, E. coli: 401 per bird
[3]; Day 12, 10 ppm
  average bacteria count per bird, E. coli: 2063 per bird
[3]; Day 12, 20 ppm
  average bacteria count per bird, E. coli: 775 per bird
[3]; Day 14, 10 ppm
  average bacteria count per bird, E. coli: 2581 per bird
[3]; Day 14, 20 ppm
  average bacteria count per bird, E. coli: 1453 per bird
[3]; Day 16, 10 ppm
  average bacteria count per bird, E. coli: 3005 per bird
[3]; Day 16, 20 ppm
  average bacteria count per bird, E. coli: 2933 per bird
[3]; Day 18, 10 ppm
  average bacteria count per bird, E. coli: 3617 per bird
[3]; Day 18, 20 ppm
  average bacteria count per bird, E. coli: 3645 per bird
[3]; Day 20, 10 ppm
  average bacteria count per bird, E. coli: 4460 per bird
[3]; Day 20, 20 ppm
  average bacteria count per bird, E. coli: 4036 per bird
[4]; Day 0, 10 ppm
  average bacteria count per bird, S. enteritidis: 292 per bird
[4]; Day 0, 20 ppm
  average bacteria count per bird, S. enteritidis: 12 per bird
[4]; Day 2, 10 ppm
  average bacteria count per bird, S. enteritidis: 344 per bird
[4]; Day 2, 20 ppm
  average bacteria count per bird, S. enteritidis: 18 per bird
[4]; Day 4, 10 ppm
  average bacteria count per bird, S. enteritidis: 394 per bird
[4]; Day 4, 20 ppm
  average bacteria count per bird, S. enteritidis: 27 per bird
[4]; Day 6, 10 ppm
  average bacteria count per bird, S. enteritidis: 433 per bird
[4]; Day 6, 20 ppm
  average bacteria count per bird, S. enteritidis: 55 per bird
[4]; Day 8, 10 ppm
  average bacteria count per bird, S. enteritidis: 507 per bird
[4]; Day 8, 20 ppm
  average bacteria count per bird, S. enteritidis: 104 per bird
[4]; Day 10, 10 ppm
  average bacteria count per bird, S. enteritidis: 616 per bird
[4]; Day 10, 20 ppm
  average bacteria count per bird, S. enteritidis: 212 per bird
[4]; Day 12, 10 ppm
  average bacteria count per bird, S. enteritidis: 740 per bird
[4]; Day 12, 20 ppm
  average bacteria count per bird, S. enteritidis: 413 per bird
[4]; Day 14, 10 ppm
  average bacteria count per bird, S. enteritidis: 919 per bird
[4]; Day 14, 20 ppm
  average bacteria count per bird, S. enteritidis: 832 per bird
[4]; Day 16, 10 ppm
  average bacteria count per bird, S. enteritidis: 1081 per bird
[4]; Day 16, 20 ppm
  average bacteria count per bird, S. enteritidis: 1711 per bird
[4]; Day 18, 10 ppm
  average bacteria count per bird, S. enteritidis: 1286 per bird
[4]; Day 18, 20 ppm
  average bacteria count per bird, S. enteritidis: 2074 per bird
[4]; Day 20, 10 ppm
  average bacteria count per bird, S. enteritidis: 1513 per bird
[4]; Day 20, 20 ppm
  average bacteria count per bird, S. enteritidis: 2258 per bird
[5]; Day 0, 10 ppm
  average bacteria count per bird, C. jejuni: 519 per bird
[5]; Day 0, 20 ppm
  average bacteria count per bird, C. jejuni: 17 per bird
[5]; Day 2, 10 ppm
  average bacteria count per bird, C. jejuni: 573 per bird
[5]; Day 2, 20 ppm
  average bacteria count per bird, C. jejuni: 25 per bird
[5]; Day 4, 10 ppm
  average bacteria count per bird, C. jejuni: 627 per bird
[5]; Day 4, 20 ppm
  average bacteria count per bird, C. jejuni: 39 per bird
[5]; Day 6, 10 ppm
  average bacteria count per bird, C. jejuni: 671 per bird
[5]; Day 6, 20 ppm
  average bacteria count per bird, C. jejuni: 78 per bird
[5]; Day 8, 10 ppm
  average bacteria count per bird, C. jejuni: 834 per bird
[5]; Day 8, 20 ppm
  average bacteria count per bird, C. jejuni: 157 per bird
[5]; Day 10, 10 ppm
  average bacteria count per bird, C. jejuni: 1043 per bird
[5]; Day 10, 20 ppm
  average bacteria count per bird, C. jejuni: 294 per bird
[5]; Day 12, 10 ppm
  average bacteria count per bird, C. jejuni: 1309 per bird
[5]; Day 12, 20 ppm
  average bacteria count per bird, C. jejuni: 594 per bird
[5]; Day 14, 10 ppm
  average bacteria count per bird, C. jejuni: 1551 per bird
[5]; Day 14, 20 ppm
  average bacteria count per bird, C. jejuni: 1191 per bird
[5]; Day 16, 10 ppm
  average bacteria count per bird, C. jejuni: 1880 per bird
[5]; Day 16, 20 ppm
  average bacteria count per bird, C. jejuni: 2259 per bird
[5]; Day 18, 10 ppm
  average bacteria count per bird, C. jejuni: 2359 per bird
[5]; Day 18, 20 ppm
  average bacteria count per bird, C. jejuni: 2835 per bird
[5]; Day 20, 10 ppm
  average bacteria count per bird, C. jejuni: 2789 per bird
[5]; Day 20, 20 ppm
  average bacteria count per bird, C. jejuni: 3059 per bird
